Assay results as given in patent US10969380B2, “Simultaneous detection of cannibalism and senescence as prognostic marker for cancer” (Institut Gustave-Roussy, priority 2012, dated 2021).

What was measured:
[1] = tested on: human primary keratinocytes (HEKn); test: SA-β-Gal senescence assay in human primary keratinocytes; assay type: cell-based; conditions: HEKn after fifth passage; 20 μM Kaempferol, 24 hours
Procedure: FIG. 12. Identification of entescence as a non-cell autonomous senescence. (A) Effects of P2Y2 inhibition on SA-β Gal activity of human primary keratinocytes. After the fifth passages, human primary keratinocytes were cultured during 24 hours in presence or in absence of 20 μM of P2Y2 inhibitor Kaempferol. The number of SA-β Gal positive single or cannibal cells per total number of cells examined (at least 300 per well) was recorded and frequencies of SA-β Gal positive were determined. Error bars represent means±SEM (n=3; *p <0.01). (B) Effects of P2Y2 inhibition on SA-β Gal activity detected after g-irradiation or mithoxantron treatment. […] Then as described above frequencies of SA-β Gal positive were determined (means±SEM; n=3; *p <0.01). […] As previously described, the number of SA-β Gal positive single or cannibal cells per total number of cells examined (at least 300 per well) was recorded (means±SEM; n=3; *p <0.01). […] P21WAF1 expression was also analyzed using antibody against p21^WAF1 (green). […] (F-H) Effects of P2Y2 depletion on DNA damage foci formation, p21^WAF1 expression and SA-β Gal activity detected after Δ133p53. After P2Y2 depletion, the percentage of Δ133p53 depleted cells showing positivity for γ-I-H2AX^+ or p21^WAF1 expression were determined by confocal microscopy (G,H) and analyzed for p Gal activity (Means±SEM; n=3; *P <0.01). […]

[2] = tested on: HCT116 cells; test: SA-β-Gal senescence assay in HCT116 cells; assay type: cell-based, human; conditions: 20 μM Kaempferol, 24 hours
Procedure: FIG. 4. Cellular cannibalism leads to senescence. (A,B) Effects of cellular cannibalism on cell proliferation. After cell sorting, cell proliferation of TP53 or Δ133TP53 knocked down and TP53 knocked out single or cannibal cells were performed during 6 days. (C-H) Effects of cellular cannibalism on senescence induction. Cannibal cells mediated by TP53 knockout or Δ133TP53 knockdown were examined in EdU incorporation assay (C,D), in DNA damage response (E,F) and in SA-β-Gal assay (G,H). (C) Determination of EdU incorporation on cannibal cells induced by Δ133TP53 knockdown, or TP53 knockout. […] The number of EdU positive single or cannibal cells per total number of cells examined (at least 300 per well) was recorded. […] (F) Quantification of DNA damage foci in single and cannibal cells after TP53 or Δ133TP53 inactivation. The percentage of γ-H2AX^+ cells or p53BP1^+ cells were determined by confocal microscopy. […] (I) p21^WAF1 expression during coculture of Tp53^+/+ or TP53^−/− cells, P21^WAF1 expression was determined by immunoblot. […] (K) Quantification of p21^WAF1 expression in single and cannibal cells after TP53 or Δ133TP53 inactivation. The percentage of […]21WAF^+ cells in cannibal cells was determined by confocal microscopy. […] P21^WAF1 expression was determined by immunoblot. […] Quantification of SA-β Gal positive cells were realized as described above (n=3; means±SEM; *P <0.01). […]

SMILES: O=c1c(O)c(-c2ccc(O)cc2)oc2cc(O)cc(O)c12 [kaempferol]
- senescence (frequency of senescent, SA-β-Gal-positive cannibal cells) during replicative stress [1]: strongly reduced senescence
- senescence (frequency of senescent, SA-β-Gal-positive cannibal cells) after treatment with IR or with MTX [2]: strongly reduced senescence
